Test results: US20230021483A1, “[…] […] METHOD AND CLASSIFICATION OF PHARMACEUTICAL COMPONENTS BY USING TRANSCRIPTOMES” (National Institutes of Biomedical Innovation, Health and …, priority 2016, published 2023)

System: adjuvant-associated biological themes in LV, SP, LN
Text: A defined sets of genes were selected according to specified criteria (e.g., FC, PA-call, threshold values). Their functional enrichment values were then obtained from TargetMine (Chen, Y. A., Tripathi, L. P. & Mizuguchi, K. PloS one 6, e17844 (2011)) (http://targetmine.mizuguchilab.org/) using the API interface. The following resources were used throughout the analysis via TargetMine Interface (GO, GOSlim, Integrated Pathway, KEGG, Reactome, and the NCI pathway). The Holm-Bonferroni method was used for multiple testing corrections.
Whole organ transcriptome data for each organ from each mouse were analyzed as follows to obtain biological themes for individual samples from each adjuvant-administered group of three mice. […] A set of Pj genes was first defined, where eij/ei(c)>2.0. Biological themes enriched within Pj were then identified using TargetMine (Chen, Y. A. et al., PloS one 6, e17844 (2011)) (http://targetmine.mizuguchilab.org/). Tj denote the resulting list of biological themes, with associated p-values from Fischer's exact test.
Next, the biological themes called by all the individual samples in the group were scored as follows. Having obtained three lists (T1, T2 and T3) for a given experimental condition, a consensus list T of themes was created as T={(t1, p1), (t2, p2), . . . }, where ti is a biological theme that appears in all of T1, T2 and T3, and pi is the smallest of the associated p-values. Only the themes with the p-value of <0.05 were included in T.
To summarize the biological themes in T further, a list of terms considered to be associated with adjuvant activity in general was separately prepared. AT={at1, at2, . . . }, where ati is a pre-selected adjuvant-associated term (e.g., “stress” or “cytokine”). Finally, an enrichment score S for an adjuvant-associated term ati was defined as: S(ati)=Σ−log(pj), where the name of tj in T includes a term ati as a substring and pj is the associated p-value.
This scoring scheme summarizes the relative enrichment of pre-selected adjuvant-associated terms in genes responding to each adjuvant in each organ.

Cc1ccc2c(=O)c3cccc(CC(=O)O)c3oc2c1C [DMXAA, 5,6-dimethylxanthenone-4-acetic acid]
40.4: GO annotation: response to stress (Term: stress) (LV, ID)
11.3: GO annotation: response to interferon-alpha (Term: IFN alpha) (LV, ID)
34.9: GO annotation: innate immune response (Term: innate immune response) (LV, ID)
7.37: IFN gamma: cellular response to interferon-gamma (LV, ID)
48.4: GO annotation: defense response (Term: defense response) (LV, ID)
17.9: IFN beta: response to interferon-beta (LV, ID)
10.3: IFN gamma: response to interferon-gamma (LV, ID)
9.24: GO annotation: activation of innate immune response (Term: innate immune response) (LV, ID)
6.81: GO annotation: interferon-alpha production (Term: IFN alpha) (LV, ID)
12.4: GO annotation: positive regulation of innate immune response (Term: innate immune response) (LV, ID) | GO annotation: regulation of immune response (Term: immune response) (LV, ID)
19.8: GO annotation: regulation of innate immune response (Term: innate immune response) (LV, ID)
8.37: GO annotation: regulation of cytokine production (Term: cytokine) (LV, ID)
15.4: GO annotation: Cytokine-cytokine receptor interaction|Endocytosis (Term: cytokine) (LV, ID)
26.5: GO annotation: response to cytokine (Term: cytokine) (LV, ID)
7.3: GO annotation: regulation of interferon-alpha production (Term: IFN alpha) (LV, ID)
3.49: GO annotation: regulation of response to wounding (Term: wounding) (LV, ID)
6.98: GO annotation: cytokine production (Term: cytokine) (LV, ID)
21: GO annotation: regulation of response to stress (Term: stress) (LV, ID)
19: GO annotation: positive regulation of defense response (Term: defense response) (LV, ID)
5.67: GO annotation: activation of immune response (Term: immune response) (LV, ID)
3.09: IFN beta: regulation of interferon-beta production (LV, ID)
25.5: GO annotation: immune response (Term: immune response) (LV, ID)
7.86: GO annotation: positive regulation of cytokine production (Term: cytokine) (LV, ID)
5.98: GO annotation: immune response-activating signal transduction (Term: immune response) (LV, ID)
3.77: GO annotation: NF-kappa B signaling pathway (Term: NF-kappa B signaling pathway) (LV, ID)
7.99: GO annotation: innate immune response-activating signal transduction (Term: innate immune response) (LV, ID)
10.7: GO annotation: TNF signaling pathway (Term: TNF signaling pathway) (LV, ID)
5.66: IFN beta: positive regulation of interferon-beta production (LV, ID)
16.7: GO annotation: cellular response to cytokine stimulus (Term: cytokine) (LV, ID) | IFN beta: cellular response to interferon-beta (LV, ID)
3.52: GO annotation: defense response to protozoan (Term: defense response) (LV, ID)
15: GO annotation: defense response to virus (Term: defense response) (LV, ID)
6.04: GO annotation: cell death (Term: cell death) (LV, ID)
23.6: GO annotation: defense response to other organism (Term: defense response) (LV, ID)
9.3: GO annotation: cellular response to interferon-alpha (Term: IFN alpha) (LV, ID)
10.2: GO annotation: positive regulation of immune response (Term: immune response) (LV, ID)
8.39: GO annotation: immune response-regulating signaling pathway (Term: immune response) (LV, ID)
26.8: GO annotation: regulation of defense response (Term: defense response) (LV, ID)
7.85: GO annotation: positive regulation of interferon-alpha production (Term: IFN alpha) (LV, ID)
0: GO annotation: Cytokine-cytokine receptor interaction (Term: cytokine) (LV, ID) | GO annotation: I-kappaB kinase/NF-kappaB signaling (Term: NF-kappa B signaling pathway) (LV, ID) | GO annotation: acute inflammatory response (Term: inflammatory response) (LV, ID) | GO annotation: adaptive immune response (Term: adaptive immune response) (LV, ID) | GO annotation: apoptotic process (Term: apoptosis) (LV, ID) | GO annotation: apoptotic signaling pathway (Term: apoptosis) (LV, ID) | GO annotation: cell chemotaxis (Term: chemotaxis) (LV, ID) | GO annotation: cell migration (Term: migration) (LV, ID) | GO annotation: cellular response to stress (Term: stress) (LV, ID) | GO annotation: chemokine production (Term: chemokine) (LV, ID) | GO annotation: chemokine-mediated signaling pathway (Term: chemokine) (LV, ID) | GO annotation: chemotaxis (Term: chemotaxis) (LV, ID) | GO annotation: cytokine biosynthetic process (Term: cytokine) (LV, ID) | GO annotation: cytokine metabolic process (Term: cytokine) (LV, ID) | GO annotation: cytokine secretion (Term: cytokine) (LV, ID) | GO annotation: cytokine-mediated signaling pathway (Term: cytokine) (LV, ID) | GO annotation: death (Term: cell death) (LV, ID) | GO annotation: defense response to Gram-positive bacterium (Term: defense response) (LV, ID) | GO annotation: defense response to bacterium (Term: defense response) (LV, ID) | GO annotation: granulocyte chemotaxis (Term: chemotaxis) (LV, ID) | GO annotation: granulocyte migration (Term: migration) (LV, ID) | GO annotation: inflammatory response (Term: inflammatory response) (LV, ID) | GO annotation: intrinsic apoptotic signaling pathway (Term: apoptosis) (LV, ID) | GO annotation: leukocyte chemotaxis (Term: chemotaxis) (LV, ID) | GO annotation: leukocyte migration (Term: migration) (LV, ID) | GO annotation: leukocyte migration involved in inflammatory response (Term: inflammatory response) (LV, ID) | GO annotation: lymphocyte chemotaxis (Term: chemotaxis) (LV, ID) | GO annotation: lymphocyte migration (Term: migration) (LV, ID) | GO annotation: myeloid leukocyte migration (Term: migration) (LV, ID) | GO annotation: negative regulation of apoptotic process (Term: apoptosis) (LV, ID) | GO annotation: negative regulation of cell death (Term: cell death) (LV, ID) | GO annotation: negative regulation of cytokine production (Term: cytokine) (LV, ID) | GO annotation: negative regulation of defense response (Term: defense response) (LV, ID) | GO annotation: negative regulation of immune response (Term: immune response) (LV, ID) | GO annotation: negative regulation of innate immune response (Term: innate immune response) (LV, ID) | GO annotation: negative regulation of programmed cell death (Term: cell death) (LV, ID) | GO annotation: neutrophil chemotaxis (Term: chemotaxis) (LV, ID) | GO annotation: neutrophil migration (Term: migration) (LV, ID) | GO annotation: positive regulation of I-kappaB kinase/NF-kappaB signaling (Term: NF-kappa B signaling pathway) (LV, ID) | GO annotation: positive regulation of adaptive immune response (Term: adaptive immune response) (LV, ID) | GO annotation: positive regulation of apoptotic process (Term: apoptosis) (LV, ID) | GO annotation: positive regulation of cell death (Term: cell death) (LV, ID) | GO annotation: positive regulation of cell migration (Term: migration) (LV, ID) | GO annotation: positive regulation of chemokine production (Term: chemokine) (LV, ID) | GO annotation: positive regulation of chemotaxis (Term: chemotaxis) (LV, ID) | GO annotation: positive regulation of cytokine biosynthetic process (Term: cytokine) (LV, ID) | GO annotation: positive regulation of inflammatory response (Term: inflammatory response) (LV, ID) | GO annotation: positive regulation of leukocyte chemotaxis (Term: chemotaxis) (LV, ID) | GO annotation: positive regulation of leukocyte migration (Term: migration) (LV, ID) | GO annotation: positive regulation of programmed cell death (Term: cell death) (LV, ID) | GO annotation: positive regulation of response to wounding (Term: wounding) (LV, ID) | GO annotation: positive regulation of tumor necrosis factor superfamily cytokine (Term: cytokine) (LV, ID) | GO annotation: production of molecular mediator of immune response (Term: immune response) (LV, ID) | GO annotation: programmed cell death (Term: cell death) (LV, ID) | GO annotation: regulation of I-kappaB kinase/NF-kappaB signaling (Term: NF-kappa B signaling pathway) (LV, ID) | GO annotation: regulation of adaptive immune response (Term: adaptive immune response) (LV, ID) | GO annotation: regulation of apoptotic process (Term: apoptosis) (LV, ID) | GO annotation: regulation of apoptotic signaling pathway (Term: apoptosis) (LV, ID) | GO annotation: regulation of cell death (Term: cell death) (LV, ID) | GO annotation: regulation of cell migration (Term: migration) (LV, ID) | GO annotation: regulation of chemokine production (Term: chemokine) (LV, ID) | GO annotation: regulation of chemotaxis (Term: chemotaxis) (LV, ID) | GO annotation: regulation of cytokine biosynthetic process (Term: cytokine) (LV, ID) | GO annotation: regulation of defense response to virus (Term: defense response) (LV, ID) | GO annotation: regulation of defense response to virus by host (Term: defense response) (LV, ID) | GO annotation: regulation of inflammatory response (Term: inflammatory response) (LV, ID) | GO annotation: regulation of intrinsic apoptotic signaling pathway (Term: apoptosis) (LV, ID) | GO annotation: regulation of leukocyte chemotaxis (Term: chemotaxis) (LV, ID) | GO annotation: regulation of leukocyte migration (Term: migration) (LV, ID) | GO annotation: regulation of programmed cell death (Term: cell death) (LV, ID) | GO annotation: regulation of tumor necrosis factor superfamily cytokine production (Term: cytokine) (LV, ID) | GO annotation: response to wounding (Term: wounding) (LV, ID) | GO annotation: taxis (Term: chemotaxis) (LV, ID) | GO annotation: tumor necrosis factor superfamily cytokine production (Term: cytokine) (LV, ID) | IFN beta: interferon-beta production (LV, ID) | IFN gamma: interferon-gamma production (LV, ID) | IFN gamma: regulation of interferon-gamma production (LV, ID) | interleukin-6: interleukin-6 production (LV, ID) | interleukin-6: positive regulation of interleukin-6 production (LV, ID) | interleukin-6: regulation of interleukin-6 production (LV, ID) | interleukin-12: interleukin-12 production (LV, ID) | interleukin-12: positive regulation of interleukin-12 production (LV, ID) | interleukin-12: regulation of interleukin-12 production (LV, ID) | GO annotation: adaptive immune response based on somatic recombination of immune receptors built from immunoglobulin superfamily domains (Term: adaptive immune response) (mouse, in vivo) | GO annotation: regulation of adaptive immune response based on somatic recombination of immune receptors built from immunoglobulin superfamily domains (Term: adaptive immune response) (mouse, in vivo)
